Assay results published in the NIST ThermoML archive (doi:10.1021/je7002836).
Numbers after ± are expanded uncertainties.

Tests used:
[1] = molar heat capacity at constant pressure; conditions: 101 kPa, Liquid
[2] = 101 kPa, Liquid
[3] = molar heat capacity at constant pressure; xn = mol fraction of the nth substance listed; conditions: 101 kPa, Liquid
[4] = xn = mol fraction of the nth substance listed; conditions: 101 kPa, Liquid

C[N+](=O)[O-] [nitromethane]
Conditions	mass density, [2] [kg/m3]	molar heat capacity at constant pressure, [1] [J/K/mol]
293.15 K	1140.2 ± 3.3	106.6 ± 3.3
298.15 K	1133.4 ± 3.2	106.9 ± 3.3
303.15 K	1126.6 ± 3.1	107.3 ± 3.3
308.15 K	1119.7 ± 3.1	107.7 ± 3.3
313.15 K	1112.9 ± 3	108.2 ± 3.4
318.15 K	1106 ± 2.9	108.6 ± 3.4

CCCC[n+]1cccc(C)c1.F[B-](F)(F)F [1-butyl-3-methylpyridinium tetrafluoroborate]
Conditions	mass density, [2] [kg/m3]	molar heat capacity at constant pressure, [1] [J/K/mol]
293.15 K	1188.6 ± 7	385.8 ± 12
298.15 K	1185.2 ± 6.9	387.7 ± 12
303.15 K	1181.7 ± 6.8	390.1 ± 12
308.15 K	1178.3 ± 6.7	392.8 ± 12
313.15 K	1174.9 ± 6.6	395.9 ± 12
318.15 K	1171.6 ± 6.6	399.3 ± 12

O [water] + CCCC[n+]1cccc(C)c1.F[B-](F)(F)F
x2 = 0
Conditions	mass density, 308.15 K [kg/m3]	molar heat capacity at constant pressure, 293.15 K [J/K/mol]	molar heat capacity at constant pressure, 298.15 K [J/K/mol]	molar heat capacity at constant pressure, 303.15 K [J/K/mol]	molar heat capacity at constant pressure, 308.15 K [J/K/mol]	molar heat capacity at constant pressure, 313.15 K [J/K/mol]	molar heat capacity at constant pressure, 318.15 K [J/K/mol]
[3]	–	75.4 ± 2.3	75.3 ± 2.3	75.3 ± 2.3	75.2 ± 2.3	75.2 ± 2.3	75.3 ± 2.3
[4]	994.1 ± 2.3	–	–	–	–	–	–

CCO [ethanol] + CCCC[n+]1cccc(C)c1.F[B-](F)(F)F
x2 = 0
Conditions	mass density, [4] [kg/m3]	molar heat capacity at constant pressure, [3] [J/K/mol]
293.15 K	789.6 ± 3.7	111.3 ± 3.4
298.15 K	785.3 ± 3.7	113.3 ± 3.5
303.15 K	781 ± 3.8	115.3 ± 3.6
308.15 K	776.7 ± 3.8	117.5 ± 3.6
313.15 K	772.3 ± 3.9	119.7 ± 3.7
318.15 K	767.8 ± 3.9	122.1 ± 3.8

CCO [ethanol]
Conditions	mass density, [2] [kg/m3]	molar heat capacity at constant pressure, [1] [J/K/mol]
293.15 K	789.6 ± 3.7	111.3 ± 3.4
298.15 K	785.3 ± 3.7	113.3 ± 3.5
303.15 K	781 ± 3.8	115.3 ± 3.6
308.15 K	776.7 ± 3.8	117.5 ± 3.6
313.15 K	772.3 ± 3.9	119.7 ± 3.7
318.15 K	767.8 ± 3.9	122.1 ± 3.8

CCCC[n+]1cccc(C)c1.F[B-](F)(F)F [1-butyl-3-methylpyridinium tetrafluoroborate] + C[N+](=O)[O-]
x1 = 1
Conditions	mass density, [4] [kg/m3]	molar heat capacity at constant pressure, [3] [J/K/mol]
293.15 K	1188.6 ± 3.6	385.8 ± 12
298.15 K	1185.2 ± 3.6	387.7 ± 12
303.15 K	1181.7 ± 3.5	390.1 ± 12
308.15 K	1178.3 ± 3.5	392.8 ± 12
313.15 K	1174.9 ± 3.5	395.9 ± 12
318.15 K	1171.6 ± 3.4	399.3 ± 12
